Assay results: ChEMBL document CHEMBL4622844, “Inhibition of bacterial growth and galactosyltransferase activity of WbwC by α, ω-bis(3-alkyl-1H-imidazolium)alkane salts: Effect of varying carbon content” (Bioorg Med Chem, 2020)
The source made the active and inactive calls. No cut-off for these calls is given here.

Key:
[1] = Inhibition of recombinant Escherichia coli O104:H4 Beta-1,3-galactosyltransferase WbwC expressed in Escherichia coli BL21 in presence of UDP-[3H]Gal and GalNAC-PO3-PO3-(CH2)11-O-phenyl after 1 hr by scintillation counting method
Escherichia coli [2] = experiment: Inhibition of recombinant Escherichia coli O104:H4 Beta-1,3-galactosyltransferase WbwC expressed in Escherichia coli BL21 at 0.5 mM in presence of UDP-[3H]Gal and GalNAC-PO3-PO3-(CH2)11-O-phenyl after 1 hr by scintillation counting method relative to control
Pseudomonas aeruginosa [3] = experiment: Antimicrobial activity against Pseudomonas aeruginosa PAO1 assessed as inhibition of colony formation at 50 uM preincubated for 4 hrs and measured after overnight incubation by CFU assay; format: functional
[4] = biological target: T1, Beta-1,4-galactosyltransferase 1 (Bos taurus) (UniProt P08037); experiment: Inhibition of bovine milk Beta-1,4-galactosyltransferase at 0.5 mM in presence of UDP-[3H]Gal and GlcNAc-beta-Bn after 1 hr by scintillation counting method
T1 sequence (whole entry): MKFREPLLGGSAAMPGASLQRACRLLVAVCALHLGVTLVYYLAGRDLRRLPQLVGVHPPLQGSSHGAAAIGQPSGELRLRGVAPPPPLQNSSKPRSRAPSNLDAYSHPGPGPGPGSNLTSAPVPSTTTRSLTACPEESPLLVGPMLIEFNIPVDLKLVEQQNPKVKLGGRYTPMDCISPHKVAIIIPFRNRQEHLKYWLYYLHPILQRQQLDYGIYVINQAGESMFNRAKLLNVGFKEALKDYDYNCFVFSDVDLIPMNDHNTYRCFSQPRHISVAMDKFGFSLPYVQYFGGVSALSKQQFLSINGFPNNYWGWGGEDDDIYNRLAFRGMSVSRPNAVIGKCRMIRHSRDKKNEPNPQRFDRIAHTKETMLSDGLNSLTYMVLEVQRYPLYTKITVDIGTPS

AD293 [5] = experiment: Growth inhibition of human AD293 cells at 50 uM after 24 hrs by MTT assay; format: cell-based; conditions: ad293, 24 h
OC-3-VGH [6] = experiment: Growth inhibition of human OC-3-VGH cells at 50 uM after 24 hrs by MTT assay; format: cell-based
A549 [7] = experiment: Growth inhibition of human A549 cells at 50 uM after 24 hrs by MTT assay; format: cell-based; conditions: a549, 24 h
[8] = Growth inhibition of human OC-3-VGH cells at 0.5 mM after 24 hrs by MTT assay; format: cell-based; conditions: read-out: GI
OC-3-VGH [9] = experiment: Inhibition of cell migration in human OC-3-VGH cells at 500 uM incubated for 18 hrs by scratch wound healing assay; format: cell-based
PC-3 [10] = experiment: Growth inhibition of human PC3 cells after 24 hrs by MTT assay; format: cell-based; conditions: pc-3, 24 h
A549 [11] = experiment: Growth inhibition of human A549 cells after 24 hrs by MTT assay; format: cell-based; conditions: a549, 24 h
AD293 [12] = experiment: Growth inhibition of human AD293 cells after 24 hrs by MTT assay; format: cell-based; conditions: ad293, 24 h
A549 [13] = experiment: Growth inhibition of human A549 cells at 0.5 mM after 24 hrs by MTT assay; format: cell-based; conditions: a549, 24 h, 500 µM
PC-3 [14] = experiment: Growth inhibition of human PC3 cells at 0.5 mM after 24 hrs by MTT assay; format: cell-based; conditions: pc-3, 24 h, 500 µM
AD293 [15] = experiment: Growth inhibition of human AD293 cells at 0.5 mM after 24 hrs by MTT assay; format: cell-based; conditions: ad293, 24 h, 500 µM
OC-3-VGH [16] = experiment: Growth inhibition of human OC-3-VGH cells after 24 hrs by MTT assay; format: cell-based
[17] = tested on: Staphylococcus epidermidis; experiment: Antimicrobial activity against Staphylococcus epidermidis assessed as inhibition of colony formation at 10 uM preincubated for 4 hrs and measured after overnight incubation by CFU assay; format: functional
Bacillus subtilis [18] = experiment: Antimicrobial activity against Bacillus subtilis assessed as inhibition of colony formation at 5 uM preincubated for 4 hrs and measured after overnight incubation by CFU assay; format: functional
Escherichia coli [19] = experiment: Antimicrobial activity against Escherichia coli BL21 assessed as inhibition of colony formation at 10 uM preincubated for 4 hrs and measured after overnight incubation by CFU assay; format: functional
Pseudomonas aeruginosa [20] = experiment: Antimicrobial activity against Pseudomonas aeruginosa PAO1 assessed as inhibition of colony formation at 10 uM preincubated for 4 hrs and measured after overnight incubation by CFU assay; format: functional
Pseudomonas aeruginosa [21] = experiment: Antimicrobial activity against Pseudomonas aeruginosa PAO1 assessed as inhibition of colony formation at 25 uM preincubated for 4 hrs and measured after overnight incubation by CFU assay; format: functional
Bacillus subtilis [22] = experiment: Antimicrobial activity against Bacillus subtilis assessed as inhibition of colony formation at 25 uM preincubated for 4 hrs and measured after overnight incubation by CFU assay; format: functional
Escherichia coli [23] = experiment: Antimicrobial activity against Escherichia coli BL21 assessed as inhibition of colony formation at 25 uM preincubated for 4 hrs and measured after overnight incubation by CFU assay; format: functional
[24] = tested on: Staphylococcus epidermidis; experiment: Antimicrobial activity against Staphylococcus epidermidis assessed as inhibition of colony formation at 25 uM preincubated for 4 hrs and measured after overnight incubation by CFU assay; format: functional
Pseudomonas aeruginosa [25] = experiment: Antimicrobial activity against Pseudomonas aeruginosa PAO1 assessed as inhibition of colony formation at 5 uM preincubated for 4 hrs and measured after overnight incubation by CFU assay; format: functional
Bacillus subtilis [26] = experiment: Antimicrobial activity against Bacillus subtilis assessed as inhibition of colony formation at 10 uM preincubated for 4 hrs and measured after overnight incubation by CFU assay; format: functional
[27] = tested on: Staphylococcus epidermidis; experiment: Antimicrobial activity against Staphylococcus epidermidis assessed as inhibition of colony formation at 5 uM preincubated for 4 hrs and measured after overnight incubation by CFU assay; format: functional
Escherichia coli [28] = experiment: Antimicrobial activity against Escherichia coli BL21 assessed as inhibition of colony formation at 5 uM preincubated for 4 hrs and measured after overnight incubation by CFU assay; format: functional
[29] = Growth inhibition of human OC-3-VGH cells at 1 mM after 24 hrs by MTT assay; format: cell-based; conditions: read-out: GI

SMILES: CCCCCCCCCC[n+]1ccn(CCCCCCCCCCCCCCCCn2cc[n+](CCCCCCCCCC)c2)c1
- IC50 [1]: 147 µM
- inhibition (Escherichia coli [2]): 92%

SMILES: CCCCCCCCCCC[n+]1ccn(CCCCCCCCCCn2cc[n+](CCCCCCCCCCC)c2)c1
- IC50 [1]: 62 µM
- inhibition (Escherichia coli [2]): 98%

SMILES: C[n+]1ccn(CCCCCCCCCCCCCCCn2cc[n+](C)c2)c1
- inhibition (Escherichia coli [2]): 11%

SMILES: CCCCCCCC[n+]1ccn(CCCCCCCCCCCCCCCCn2cc[n+](CCCCCCCC)c2)c1
- IC50 [1]: 18 µM
- inhibition (Escherichia coli [2]): 93%

SMILES: C[n+]1ccn(CCCCCCn2cc[n+](C)c2)c1
- inhibition at 50 µM (Pseudomonas aeruginosa [3]): 0%
- inhibition (Escherichia coli [2]): 7%

SMILES: C[n+]1ccn(CCCCCCCCn2cc[n+](C)c2)c1
- inhibition (Escherichia coli [2]): 21%

SMILES: CCCCCCCCCCCC[n+]1ccn(CCCCCCCCCCCCCCCCn2cc[n+](CCCCCCCCCCCC)c2)c1
- inhibition [4]: Active
- IC50 [1]: 121 µM
- inhibition (Escherichia coli [2]): 92%

SMILES: c1cn(CCCCCCCCCCCCCCCCCCCCn2ccnc2)cn1
- growth inhibition (GI) (AD293 [5]): Non-Toxic
- growth inhibition (GI) (OC-3-VGH [6]): Non-Toxic
- growth inhibition (GI) (A549 [7]): Non-Toxic

SMILES: CCCCCC[n+]1ccn(CCCCCCCCCCn2cc[n+](CCCCCC)c2)c1
- inhibition (Escherichia coli [2]): < 1%

SMILES: CS(=O)(=O)[O-].CS(=O)(=O)[O-].C[n+]1ccn(CCCCCCCCCCCCCCCCCCCCn2cc[n+](C)c2)c1
- inhibition at 24 h, 500 µM [8]: 80%
- inhibition (INH) (OC-3-VGH [9]): Active
- growth inhibition (GI) (PC-3 [10]): Toxic
- growth inhibition (GI) (A549 [11]): Toxic
- inhibition at 50 µM (Pseudomonas aeruginosa [3]): > 90%
- growth inhibition (GI) (AD293 [12]): Toxic
- growth inhibition (GI) (A549 [13]): Toxic
- growth inhibition (GI) (PC-3 [14]): Toxic
- IC50 [1]: 230 µM
- growth inhibition (GI) (AD293 [15]): Toxic
- IC50 (OC-3-VGH [16]): 5 to 12 µM
- inhibition (Escherichia coli [2]): 91%

SMILES: CCCCCCCCCCC[n+]1ccn(CCCCCCn2cc[n+](CCCCCCCCCCC)c2)c1
- IC50 [1]: 117 µM
- inhibition (Escherichia coli [2]): 99%

SMILES: CCCCCCCCCCC[n+]1ccn(CCCCCCCCCCCCCCCCn2cc[n+](CCCCCCCCCCC)c2)c1
- inhibition at 10 µM [17]: 100%
- inhibition at 5 µM (Bacillus subtilis [18]): 100%
- inhibition at 10 µM (Escherichia coli [19]): 100%
- inhibition at 10 µM (Pseudomonas aeruginosa [20]): 77%
- inhibition at 25 µM (Pseudomonas aeruginosa [21]): 100%
- IC50 [1]: 123 µM
- inhibition at 25 µM (Bacillus subtilis [22]): 100%
- inhibition at 25 µM (Escherichia coli [23]): 100%
- inhibition at 25 µM [24]: 100%
- inhibition at 5 µM (Pseudomonas aeruginosa [25]): 28%
- inhibition at 10 µM (Bacillus subtilis [26]): 100%
- inhibition at 5 µM [27]: 100%
- inhibition at 5 µM (Escherichia coli [28]): 100%
- inhibition (Escherichia coli [2]): 92%

SMILES: CCCCCCCCCCCC[n+]1ccn(CCCCCCCCCCn2cc[n+](CCCCCCCCCCCC)c2)c1
- inhibition at 10 µM [17]: 100%
- inhibition at 5 µM (Bacillus subtilis [18]): 100%
- inhibition at 10 µM (Escherichia coli [19]): 100%
- inhibition at 10 µM (Pseudomonas aeruginosa [20]): 100%
- inhibition at 25 µM (Pseudomonas aeruginosa [21]): < 98%
- inhibition [4]: Active
- IC50 [1]: 59 µM
- inhibition at 25 µM (Bacillus subtilis [22]): 100%
- inhibition at 25 µM (Escherichia coli [23]): 100%
- inhibition at 25 µM [24]: 100%
- inhibition at 5 µM (Pseudomonas aeruginosa [25]): > 98%
- inhibition at 10 µM (Bacillus subtilis [26]): 100%
- inhibition at 5 µM [27]: 100%
- inhibition at 5 µM (Escherichia coli [28]): 100%
- inhibition (Escherichia coli [2]): 91%

SMILES: CCCC(=O)N[C@@H]1[C@@H](O)[C@H](O)[C@@H](CO)O[C@H]1Sc1ccc2ccccc2c1
- inhibition (Pseudomonas aeruginosa [3]): inactive
- inhibition at 24 h, 1000 µM [29]: 50%
- inhibition [4]: inactive

SMILES: C[n+]1ccn(CCCCn2cc[n+](C)c2)c1
- inhibition at 50 µM (Pseudomonas aeruginosa [3]): 0%
- inhibition (Escherichia coli [2]): 9%

SMILES: CCCCCCCC[n+]1ccn(CCCCCCn2cc[n+](CCCCCCCC)c2)c1
- inhibition (Escherichia coli [2]): 13%

SMILES: CCCCCCCCC[n+]1ccn(CCCCCCCCCCn2cc[n+](CCCCCCCCC)c2)c1
- inhibition [4]: Active
- IC50 [1]: 23 µM
- inhibition (Escherichia coli [2]): 95%
